These results are taken from patent US12643886B2 (Ontario Institute for Cancer Research (OICR), priority 2021, dated 2026).

The target of assay [1] is T1, NUAK2 (h) (Homo sapiens, UniProt Q9H093).
T1 construct: This assay was done radiometrically using full-length, recombinant enzyme; purchased Eurofins
T1 sequence (Q9H093 1-628): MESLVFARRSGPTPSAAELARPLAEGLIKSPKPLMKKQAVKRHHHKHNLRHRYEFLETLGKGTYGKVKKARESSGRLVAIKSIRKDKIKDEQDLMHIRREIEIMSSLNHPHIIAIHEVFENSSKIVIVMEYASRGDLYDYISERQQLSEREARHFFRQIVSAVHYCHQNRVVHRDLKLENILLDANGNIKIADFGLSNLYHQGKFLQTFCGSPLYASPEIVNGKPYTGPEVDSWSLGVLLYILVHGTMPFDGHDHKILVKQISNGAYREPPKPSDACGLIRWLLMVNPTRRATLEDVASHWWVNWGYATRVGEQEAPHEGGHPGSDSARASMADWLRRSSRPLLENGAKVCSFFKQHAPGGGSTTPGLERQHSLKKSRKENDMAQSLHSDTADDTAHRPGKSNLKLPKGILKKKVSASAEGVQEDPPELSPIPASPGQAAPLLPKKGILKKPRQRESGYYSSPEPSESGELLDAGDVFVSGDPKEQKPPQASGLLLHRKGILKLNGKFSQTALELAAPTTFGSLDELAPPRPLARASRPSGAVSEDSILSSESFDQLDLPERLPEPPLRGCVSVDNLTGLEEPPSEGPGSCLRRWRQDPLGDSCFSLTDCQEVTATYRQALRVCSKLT
Nature of the assay: NUAK2 enzymatic assay (radiometric, Eurofins). In kind it is biochemical. The conditions noted are these: full-length recombinant enzyme. In outline: (§1)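 Full-length recombinant NUAK2 incubated 40 min at room temperature in 8 mM MOPS pH 7.0, 0.2 mM EDTA, 10 mM magnesium acetate, 300 μM peptide substrate and 33P-ATP. Stopped with 0.5% phosphoric acid; filter-bound label counted by scintillation. IC50 reported as ranges; NUAK1 and Aurora A served as counter-screens.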

In assay [2] the target is T2, NUAK1 (Homo sapiens, UniProt O60285).
T2 sequence (O60285 1-661): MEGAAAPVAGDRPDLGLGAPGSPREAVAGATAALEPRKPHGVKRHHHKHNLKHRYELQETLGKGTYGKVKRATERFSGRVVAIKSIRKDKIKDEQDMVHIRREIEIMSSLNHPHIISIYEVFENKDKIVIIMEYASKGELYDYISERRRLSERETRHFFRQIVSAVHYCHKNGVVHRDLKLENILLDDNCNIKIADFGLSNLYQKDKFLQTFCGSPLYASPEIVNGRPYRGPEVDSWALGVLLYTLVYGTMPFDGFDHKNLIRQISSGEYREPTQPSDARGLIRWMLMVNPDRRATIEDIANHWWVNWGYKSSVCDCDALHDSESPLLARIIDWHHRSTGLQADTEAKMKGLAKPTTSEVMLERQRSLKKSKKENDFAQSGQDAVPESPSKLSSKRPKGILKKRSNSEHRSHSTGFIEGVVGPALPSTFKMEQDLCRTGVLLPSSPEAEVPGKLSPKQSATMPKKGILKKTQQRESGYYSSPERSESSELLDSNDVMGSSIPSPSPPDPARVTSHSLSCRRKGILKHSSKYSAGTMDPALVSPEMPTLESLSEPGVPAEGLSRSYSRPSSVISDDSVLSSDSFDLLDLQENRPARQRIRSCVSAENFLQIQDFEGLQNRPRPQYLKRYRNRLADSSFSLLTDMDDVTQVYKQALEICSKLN
Put plainly: Counter-screen against NUAK1. In kind it is biochemical. In outline:
as §1

Assay [3] has as its target T3, Aurora A (Homo sapiens, UniProt O14965).
T3 sequence (O14965 1-403): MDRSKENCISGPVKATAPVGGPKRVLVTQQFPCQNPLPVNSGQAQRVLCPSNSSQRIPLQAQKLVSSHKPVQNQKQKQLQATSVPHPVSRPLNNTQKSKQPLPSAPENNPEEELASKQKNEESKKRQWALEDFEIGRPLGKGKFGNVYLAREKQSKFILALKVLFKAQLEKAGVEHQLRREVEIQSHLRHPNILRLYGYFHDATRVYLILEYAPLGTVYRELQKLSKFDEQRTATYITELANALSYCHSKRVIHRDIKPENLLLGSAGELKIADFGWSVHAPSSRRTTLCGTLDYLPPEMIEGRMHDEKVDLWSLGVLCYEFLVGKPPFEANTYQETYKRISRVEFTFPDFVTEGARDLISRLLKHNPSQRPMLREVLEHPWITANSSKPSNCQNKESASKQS
Nature of the assay: Counter-screen against Aurora A. As to conditions: read-out: AUR-A (IC50). In kind it is biochemical. In outline:
as §1

Assay [4] deals with Clover-YAP expressing MDA-MB-231 cells. Put plainly: Cell-based YAP/TAZ localization assay (live imaging of Clover-YAP). As to conditions: MDA-MB-231 breast cancer cell line, FIG. 1. The procedure:
Compounds of the application were tested for their ability to inhibit localization of YAP/TAZ to the nucleus of cells using an assay generally described in Nature Communications, 2018, 9:3510. Live cell imaging of Clover-YAP expressing MDA-MB-231 cells was carried out using a custom WAVE-FX-X1 spinning disc confocal system (Quorum Technologies) with a modified Yokogawa CSU-X1 scanhead on an AxioObserver Z1 inverted microscope (Carl Zeiss) with a ×40 NA 1.2 Plan Apochromat (Carl Zeiss) objective. Cells were plated in a 35 mm glass-bottom dish (Mat-Tek, P35G-1.5-14-C) and were maintained in a stage-top incubator at 37° C. and 5% CO2 during imaging. Cells were cultured in phenol-red free RPMI medium (Thermo Fisher Scientific, 11835030) with 5% FBS and 200 nM SiR-DNA (Spirochrom, SC007) was added 1 h prior to imaging to visualize the nuclei. Localization of Clover-YAP was monitored every 10 min for 2 h. Volocity software was used for image acquisition and processing.

In assay [5] the test system is MDA-MB-231 cells. Nature of the assay: Tumor cell growth inhibition assay (ATPlite, 5 days). In kind it is cell-based. The conditions noted are these: Homo sapiens, 120 h; breast tumor cell line MDA-MB-231, 5 days. The procedure: MDA-MB-231 cells were seeded into a 384-well plate at 1,000 cells/well in 50 μl medium (Alpha-MEM containing 10% FBS, […] Normocin, Invivogen and […] Gentamycin, Invitrogen). Plates were then incubated overnight for the cells to attach. An HP D300 digital dispenser was used to dose cells with DMSO or test compounds across a 16-point range of concentrations (high dose of 10 uM to low dose of 5 nM). Plates were incubated in a humidified 5% CO2 incubator at 37° C. After 5 days, plates were removed from the incubator and equilibrated to room temperature. An equal volume of ATPlite assay reagent was then added to each well, and samples processed according to manufacturer's instructions (Perkin Elmer). Luminescent signals were then measured using an Envision plate reader equipped with a US-Luminescence detector.

The subject of assay [6] is several cancer cell lines. As to conditions: immunofluorescence; cited from earlier work.
The test system of assay [7] is several cancer cell lines. As to conditions: PCR; cited from earlier work.

Take `O=C1NCc2cccc(Nc3nc(Nc4ccc(N5CCNCC5)cc4OC(F)F)ncc3C(F)(F)F)c21` [Compound I-34, 7-((2-((2-(difluoromethoxy)-4-(piperazin-1-yl)phenyl)amino)-5-(trifluoromethyl)pyrimidin-4-yl)amino)isoindolin-1-one]: the half-inhibitory concentration (IC50) in assay [1] is 11 to 100 nM; in assay [2] it was 11 to 100 nM; in assay [3], above 1000 nM; in assay [5] it was 32 nM. The “Inhibition of nuclear localization of YAP/TAZ” value in assay [4] was “potently inhibit nuclear localization of YAP/TAZ”.

For `CCC(=O)Nc1cccc(Oc2nc(Nc3ccc(N4CCN(C)CC4)cc3OC)ncc2Cl)c1` [WZ4003], the YAP/TAZ nuclear localization entry in assay [6] is on record as “a block of YAP/TAZ nuclear localization”. Also, in assay [7], the “YAP/TAZ transcriptional function (target gene expression)” value was “attenuates transcriptional function”.

For `O=C1NCc2cccc(Nc3nc(Nc4ccc(N5C[C@H]6CNC[C@H]6C5)cc4OC(F)F)ncc3C(F)(F)F)c21` [Compound I-56, 7-((2-((2-(difluoromethoxy)-4-((3aR,6aS)-hexahydropyrrolo[3,4-c]pyrrol-2(1H)-yl)phenyl)amino)-5-(trifluoromethyl)pyrimidin-4-yl)amino)isoindolin-1-one], the IC50 was 11 to 100 nM in assay [1], 11 to 100 nM in assay [2], 101 to 1000 nM in assay [3] and 43 nM in assay [5].

With `CN1CCN(c2ccc(Nc3ncc4cc(C#N)c(=O)n(C5CCCC5)c4n3)cc2)CC1` [ON123300], the YAP/TAZ nuclear localization result in assay [6] is “a block of YAP/TAZ nuclear localization”. For the same molecule, in assay [7], the “YAP/TAZ transcriptional function (target gene expression)” value was “attenuates transcriptional function”.
